The experiment concerns the target T1, Dimer of Gag-Pol polyprotein [489-587] (Human immunodeficiency virus 1, UniProt P12497).
T1 construct: 489-587
The experiment can be described thus: Protease Inhibition Assay. Conditions: pH 5; 22 °C. From the text: HIV-1 protease was purified and refolded from E. coli inclusion bodies. […] In the presence of HIV-l protease, the substrate is rapidly cleaved into two parts. The biotinylated amino terminal fragment binds to the avidin beads while the FITC-containing carboxy1 terminal fragment is removed through the membrane. […] The bound fluorescence is obtained by processing on an IDEXX Screen Machine. Determination of Ki values with this assay requires analysis under conditions in which substrate concentration resides substantially below Km and the inhibitor concentrations greatly exceeds the Ki value and the enzyme concentration.

Each structure is given as a SMILES string.

`O=c1oc2c(c(O)c1[C@H](c1cccc(NS(=O)(=O)c3ccccc3)c1)C1CC1)CCCCCC2` [N-{3-[(S)-cyclopropyl({4-hydroxy-2-oxo-2H,5H,6H,7H,8H,9H,10H-cycloocta[b]pyran-3-yl})methyl]phenyl}benzenesulfonamide] yielded a Ki of 3 nM.

These data come from BindingDB's records for doi:10.1021/jm00026a002 (Upjohn, 1995).
